From ChEMBL document CHEMBL1201862, “PubChem BioAssay data set” (2004)
Several values for one entry are separate records, joined by “and”; a condition that tells them apart may be missing. Equal entries are not always repeated.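 Values below derive from 48-hour exposures of cells grown in 96-well plates, with endpoints linearly interpolated between the two concentrations bracketing the appropriate inhibition level. The concentration for 50% growth inhibition is given as GI50.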 Activity calls are given as the source filed them. Rule as the data show it: active = GI50 up to about 1.1 µM and inactive = higher.

Key:
Experiment in all cases: growth of human tumour cells (NCI), 48 h
HOP-92 = system: HOP-92
SF-268 = system: SF-268
SN12C = system: SN12C
UACC-62 = system: UACC-62
RXF 631 = system: RXF 631
HT-29 = system: HT-29
LXFL 529 = system: LXFL 529
XF498 = system: XF498
KM-20L2 = system: KM-20L2
MOLT-4 = system: MOLT-4
OVCAR-4 = system: OVCAR-4
HCC 2998 = system: HCC 2998
M14 = system: M14
ACHN = system: ACHN
NCI-H460 = system: NCI-H460
SW-620 = system: SW-620
HCT-116 = system: HCT-116
HOP-62 = system: HOP-62
EKVX = system: EKVX
KM12 = system: KM12
OVCAR-3 = system: OVCAR-3
SF-295 = system: SF-295
LOX IMVI = system: LOX IMVI
OVCAR-5 = system: OVCAR-5
MCF7 = system: MCF7
RXF 393 = system: RXF 393
CCRF-CEM = system: CCRF-CEM
K562 = system: K562
CAKI-1 = system: CAKI-1
SK-MEL-5 = system: SK-MEL-5
UACC-257 = system: UACC-257
A498 = system: A498
SK-MEL-28 = system: SK-MEL-28
NCI-H226 = system: NCI-H226
U-251 = system: U-251
Malme-3M = system: Malme-3M
RPMI-8226 = system: RPMI-8226
NCI-H23 = system: NCI-H23
SNB-78 = system: SNB-78
SK-MEL-2 = system: SK-MEL-2
DMS-273 = system: DMS-273
COLO 205 = system: COLO 205
HCT-15 = system: HCT-15
M19-MEL = system: M19-MEL
HL-60 = system: HL-60
IGROV-1 = system: IGROV-1
DLD-1 = system: DLD-1
SK-OV-3 = system: SK-OV-3
786-0 = system: 786-0
SF-539 = system: SF-539
OVCAR-8 = system: OVCAR-8
SNB-19 = system: SNB-19
NCI/ADR-RES = system: NCI/ADR-RES
DMS-114 = system: DMS-114
TK-10 = system: TK-10
UO-31 = system: UO-31
A549 = system: A549

N#C/C(=C\c1ccc(O)cc1)C(N)=O
GI50 (HOP-92): > 100 µM (inactive)
GI50 (SF-268): > 100 µM (inactive)
GI50 (SN12C): > 100 µM (inactive)
GI50 (UACC-62): > 100 µM (inactive)
GI50 (RXF 631): > 100 µM (inactive)
GI50 (HT-29): > 100 µM (inactive)
GI50 (LXFL 529): > 100 µM (inactive)
GI50 (XF498): > 100 µM (inactive) and > 88.5 µM (inactive)
GI50 (KM-20L2): > 100 µM (inactive)
GI50 (MOLT-4): > 100 µM (inactive)
GI50 (OVCAR-4): > 100 µM (inactive)
GI50 (HCC 2998): > 100 µM (inactive)
GI50 (M14): > 100 µM (inactive)
GI50 (ACHN): > 100 µM (inactive)
GI50 (NCI-H460): > 100 µM (inactive)
GI50 (SW-620): > 100 µM (inactive)
GI50 (HCT-116): > 100 µM (inactive)
GI50 (HOP-62): > 100 µM (inactive)
GI50 (EKVX): > 50.7 µM (inactive)
GI50 (KM12): > 100 µM (inactive) and > 74.6 µM (inactive)
GI50 (OVCAR-3): > 100 µM (inactive)
GI50 (SF-295): > 100 µM (inactive)
GI50 (LOX IMVI): > 100 µM (inactive)
GI50 (OVCAR-5): > 100 µM (inactive)
GI50 (MCF7): > 100 µM (inactive)
GI50 (RXF 393): 77.3 µM (inactive)
GI50 (CCRF-CEM): > 100 µM (inactive)
GI50 (K562): > 100 µM (inactive)
GI50 (CAKI-1): > 100 µM (inactive)
GI50 (SK-MEL-5): > 100 µM (inactive)
GI50 (UACC-257): > 100 µM (inactive)
GI50 (A498): > 95.7 µM (inactive) and 57.3 µM (inactive)
GI50 (SK-MEL-28): > 100 µM (inactive)
GI50 (NCI-H226): > 100 µM (inactive) and 69.7 µM (inactive)
GI50 (U-251): > 100 µM (inactive)
GI50 (Malme-3M): > 100 µM (inactive)
GI50 (RPMI-8226): > 100 µM (inactive)
GI50 (NCI-H23): > 100 µM (inactive)
GI50 (SNB-78): > 100 µM (inactive)
GI50 (SK-MEL-2): > 100 µM (inactive)
GI50 (DMS-273): > 100 µM (inactive)
GI50 (COLO 205): > 100 µM (inactive)
GI50 (HCT-15): > 100 µM
GI50 (M19-MEL): > 100 µM (inactive)
GI50 (HL-60): > 100 µM (inactive) and 57.7 µM (inactive)
GI50 (IGROV-1): > 100 µM (inactive)
GI50 (DLD-1): > 100 µM (inactive)
GI50 (SK-OV-3): > 100 µM (inactive)
GI50 (786-0): > 100 µM (inactive)
GI50 (SF-539): > 100 µM (inactive)
GI50 (OVCAR-8): > 100 µM (inactive)
GI50 (SNB-19): > 100 µM (inactive)
GI50 (NCI/ADR-RES): > 100 µM (inactive)
GI50 (DMS-114): > 100 µM (inactive)
GI50 (TK-10): > 100 µM (inactive)
GI50 (UO-31): 61.5 µM (inactive) and 91.6 µM (inactive)
GI50 (A549): > 100 µM (inactive)
